The supplement of paper PMC10307832

Experiments:
Assay in all cases: relative viability (nuclei count vs DMSO), 5 days (fraction); higher = more cells survive
[1] = test system: NCI-H522
In short: (§1)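 Relative viability was taken as the ratio of nuclei in treated wells to nuclei in vehicle wells. Lung cancer cell lines in 1536-well plates received compounds by pin tool one day after seeding, either one drug alone or a fixed anchor-drug dose plus five library-drug doses (not always all listed) in √10 steps. Nuclei were counted on 4× images after 5 days of treatment, and values are medians of duplicate plates.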

[2] = test system: LOU-NH91
In short: as §1

[3] = test system: NCI-H838
In short: as §1

[4] = test system: NCI-H1666
In short: as §1

[5] = test system: NCI-H2087
In short: as §1

[6] = test system: NCI-H3122
In short: as §1

[7] = test system: NCI-H2009
In short: as §1

[8] = test system: NCI-H596
In short: as §1

[9] = test system: BEN
In short: as §1

[10] = test system: NCI-H1395
In short: as §1

[11] = test system: 201T
In short: as §1

[12] = test system: NCI-H441
In short: as §1

With `Clc1ccc(Nc2nnc(Cc3ccncc3)c3ccccc23)cc1` [Vatalanib] + O=C(CCCCCCC(=O)Nc1ccccc1)NO [Vorinostat] (partner 1 µM) the relative viability ([1]; first compound 0.04 µM) was 0.634, the relative viability ([1]; first compound 0.1265 µM) was 0.898 and the relative viability ([1]; first compound 0.4 µM) was 1.06. It also gave a relative viability ([1]; first compound 1.265 µM) of 1, a relative viability ([1]; first compound 4 µM) of 0.895 and a relative viability ([2]; first compound 0.04 µM) of 0.939. It also gave a relative viability ([2]; first compound 0.1265 µM) of 0.874, a relative viability ([2]; first compound 0.4 µM) of 0.955 and a relative viability ([2]; first compound 1.265 µM) of 0.783. It also gave a relative viability ([2]; first compound 4 µM) of 0.882, a relative viability ([3]; first compound 0.04 µM) of 0.738 and a relative viability ([3]; first compound 0.1265 µM) of 0.761. It also gave a relative viability ([3]; first compound 0.4 µM) of 0.775, a relative viability ([3]; first compound 1.265 µM) of 0.62 and a relative viability ([3]; first compound 4 µM) of 0.694. The relative viability ([4]; first compound 0.04 µM) was 0.997, the relative viability ([4]; first compound 0.1265 µM) was 1.02 and the relative viability ([4]; first compound 0.4 µM) was 1.03. For the same molecule, the relative viability ([4]; first compound 1.265 µM) was 1.04, the relative viability ([4]; first compound 4 µM) was 0.908 and the relative viability ([5]; first compound 0.04 µM) was 0.836. It also gave a relative viability ([5]; first compound 0.1265 µM) of 0.6, a relative viability ([5]; first compound 0.4 µM) of 0.595 and a relative viability ([5]; first compound 1.265 µM) of 0.701. The relative viability ([5]; first compound 4 µM) was 0.533, the relative viability ([6]; first compound 0.04 µM) was 1.27 and the relative viability ([6]; first compound 0.1265 µM) was 0.99. It also gave a relative viability ([6]; first compound 0.4 µM) of 0.96, a relative viability ([6]; first compound 1.265 µM) of 1.01 and a relative viability ([6]; first compound 4 µM) of 1.12. The relative viability ([7]; first compound 0.04 µM) was 0.767, the relative viability ([7]; first compound 0.1265 µM) was 0.741 and the relative viability ([7]; first compound 0.4 µM) was 0.735. The relative viability ([7]; first compound 1.265 µM) was 0.732, the relative viability ([7]; first compound 4 µM) was 0.687 and the relative viability ([8]; first compound 0.04 µM) was 0.603. It also gave a relative viability ([8]; first compound 0.1265 µM) of 0.542, a relative viability ([8]; first compound 0.4 µM) of 0.672 and a relative viability ([8]; first compound 1.265 µM) of 0.583. For the same molecule, the relative viability ([8]; first compound 4 µM) was 0.608, the relative viability ([9]; first compound 0.04 µM) was 0.57 and the relative viability ([9]; first compound 0.1265 µM) was 0.625. It also gave a relative viability ([9]; first compound 0.4 µM) of 0.594, a relative viability ([9]; first compound 1.265 µM) of 0.561 and a relative viability ([9]; first compound 4 µM) of 0.61. It also gave a relative viability ([10]; first compound 0.04 µM) of 0.71, a relative viability ([10]; first compound 0.1265 µM) of 0.55 and a relative viability ([10]; first compound 0.4 µM) of 0.6. For the same molecule, the relative viability ([10]; first compound 4 µM) was 0.726, the relative viability ([11]; first compound 0.04 µM) was 0.995 and the relative viability ([11]; first compound 0.1265 µM) was 1.01. The relative viability ([11]; first compound 0.4 µM) was 1.06, the relative viability ([11]; first compound 1.265 µM) was 1.01 and the relative viability ([11]; first compound 4 µM) was 1.07. It also gave a relative viability ([12]; first compound 0.04 µM) of 0.907, a relative viability ([12]; first compound 0.1265 µM) of 0.589 and a relative viability ([12]; first compound 0.4 µM) of 0.704. For the same molecule, the relative viability ([12]; first compound 1.265 µM) was 0.776 and the relative viability ([12]; first compound 4 µM) was 0.81.
